# Source: patent publication US20220017564A1, “MOGROSIDE COMPOUNDS AND USES THEREOF” (Firmenich SA, priority 2019, published 2022)
# System: sweet taste
# Assay: Sensory testing by a group of about 5 panelists (sweetness, licorice taste, lingering aftertaste)
# Format: in vivo
# Settings: for Lingering: panelists' rating of lingering aftertaste on a scale from 1 to 10; for Licorice / Sweet: panelists' rating on a scale from 1 to 10
# Experimental: Sensory testing was conducted by a group of about 5 panelists. […] The panelists rated the sweetness, licorice taste, and lingering aftertaste of Isomogroside IVE in comparison to Mogroside V on a scale from 1 to 10.
SMILES,"licorice taste and lingering aftertaste in comparison to Mogroside V (250 ppm, panelists' perception)","sweetness in comparison to Mogroside V (250 ppm, panelists' perception)",Lingering (250 ppm),Licorice (250 ppm),Sweet (250 ppm),times sweeter than sucrose (tasted at 250 ppm in a water base)
"C[C@H](CC[C@@H](O[C@@H]1O[C@H](CO)[C@@H](O)[C@H](O)[C@H]1O[C@@H]1O[C@H](CO)[C@@H](O)[C@H](O)[C@H]1O)C(C)(C)O)[C@H]1CC[C@@]2(C)[C@@H]3CC=C4[C@@H](CC[C@H](O[C@@H]5O[C@H](CO)[C@@H](O[C@@H]6O[C@H](CO)[C@@H](O)[C@H](O)[C@H]6O)[C@H](O)[C@H]5O)C4(C)C)[C@]3(C)[C@H](O)C[C@]12C [Isomogroside IVE, (1S,4R,9beta,11alpha,24R)-1-{[4-O-(beta-D-glucopyranosyl)-beta-D-glucopyranosyl]oxy}-11,25-dihydroxy-9,10,14-trimethyl-4,9-cyclo-9,10-secocholest-5-en-24-yl 2-O-beta-D-glucopyranosyl-beta-D-glucopyranoside]",no statistically significant difference,somewhat sweeter than Mogroside V,5.4,4.5,7.0,200-300 times
"C[C@H](CC[C@@H](O[C@@H]1O[C@H](CO[C@@H]2O[C@H](CO)[C@@H](O)[C@H](O)[C@H]2O)[C@@H](O)[C@H](O)[C@H]1O[C@@H]1O[C@H](CO)[C@@H](O)[C@H](O)[C@H]1O)C(C)(C)O)[C@H]1CC[C@@]2(C)[C@@H]3CC=C4[C@@H](CC[C@H](O[C@@H]5O[C@H](CO[C@@H]6O[C@H](CO)[C@@H](O)[C@H](O)[C@H]6O)[C@@H](O)[C@H](O)[C@H]5O)C4(C)C)[C@]3(C)[C@H](O)C[C@]12C [Mogroside V, reference compound]",–,–,4.6,3.7,5.1,–
